In article PMC4578755, “Development of novel cellular histone-binding and chromatin-displacement assays for bromodomain drug discovery” (Epigenetics & Chromatin, 2015):

Key:
[1] = target: T1, GFP-tagged TRIM24 in HeLa cells (Homo sapiens, UniProt O15164); assay: GFP version of the in situ cell extraction assay; format: cell-based
T1 construct: PB-TRIM24 PHD and bromodomain of TRIM24; expressed in transfected cells; host or cells: HeLa
T1 sequence (O15164 810-1050 limits assumed): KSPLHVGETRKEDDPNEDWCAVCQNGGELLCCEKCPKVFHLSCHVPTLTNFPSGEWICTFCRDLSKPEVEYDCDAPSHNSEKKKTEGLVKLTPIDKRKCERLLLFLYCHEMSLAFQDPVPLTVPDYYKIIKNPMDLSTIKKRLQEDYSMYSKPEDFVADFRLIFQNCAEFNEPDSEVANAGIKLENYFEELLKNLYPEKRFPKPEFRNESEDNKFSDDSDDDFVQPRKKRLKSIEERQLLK
Description: In an HTS setting, we further simplified the in situ cell extraction procedure by replacing the indirect IF step (e.g., anti-FLAG) with cells engineered to express fluorescent moieties (e.g., GFP) fused to the protein target of interest (Additional file 1: Figure S5). In this format, the assay has minimal time and reagent costs associated with HTS operation, since no further liquid handling or processing steps are needed after detergent extraction and fixation. […] This is particularly noteworthy for two orthogonal assays that monitor either the displacement of TRIM24 from chromatin/nuclear structures or directly measure TRIM24/histone-H3 dissociation in cells.
OV90 or HeLa cells (20,000 cells/100 µL) were seeded into 96-well plates (Corning Costar #3603) using RPMI or DMEM medium, respectively, supplemented with 10 % FBS and grown overnight. Test agents were serially diluted in DMSO (with or without SAHA) to generate 10X master compound plates. From here, 11 µL was transferred into each well containing 100 µL of growth media followed by shaking on a rotation table (15 min, 300 rpm at RT) and incubation at 37 °C for 2 h. Plates were washed once with PBS (150 µL/well) and then with cold, freshly prepared Cytoskeleton (CSK) Buffer (10 mM PIPES, 300 mM Sucrose, 100 mM NaCl, 3 mM MgCl2; pH = 6.8). Immediately thereafter, soluble, non-chromatin-bound proteins were extracted by addition of cold CSK Buffer supplemented with 0.5 % Triton X-100 (150 µL per well) for 10 min at 4 °C followed by 4 % paraformaldehyde fixation (10 min at RT) (Additional file 1: Table S3). […]
number of fields and the number of cells in 96- and 384-well format that is enough for analysis.
Figure S5. HTS-friendly GFP-version of the in situ cell extraction assay. (A) In situ cell extraction […]
cells were treated with TRIM24i in 96-well plate using concentration range from 20 nM to 100
µM. […] EC50 curve was calculated by Harmony software during the scan. […]
Figure S6. […] Extraction buffer was added to the wells and each field of view was monitored every 3 minutes during 15 minutes. […]

[2] = tested on: histone H3K23Ac mark in HeLa cells; assay: H3K23 acetylation in HeLa cells (Western blot, anti-H3K23Ac immunostaining); format: cell-based; details: 2 h
Procedure: Standard IF procedures were used. Briefly, cells were permeabilized (0.5 % Triton X-100 in PBS) for 15 min and incubated with blocking solution (DAKO #X0909) for 30 min. The following primary antibodies were used: goat anti-V5 (Bethyl #A190-119A) 1:200; mouse anti-FLAG (Sigma #F1804) 1:200; rabbit anti-BRD4 (Abcam #ab128874) 1:200; rabbit anti-TRIM24 (Proteintech #14208-1-AP) 1:400; rabbit anti-K3K23Ac (Cell Signaling #8848) 1:200, and mouse anti-histone H3 (Active Motif #39763) 1:4000. Alexa Fluor-conjugated secondary antibodies were from Invitrogen and Hoechst 33342 (Invitrogen, #H3570) was used for nuclei counterstaining (10 µg/ml). For each Alexa fluorochrome, images (4–10 fields per well; 20X magnifications) were acquired using the Operetta High-Content Screening System (PerkinElmer). Image analysis was performed in Harmony software (PerkinElmer) by selecting nuclei and cytoplasm in Hoechst channel. Gating for single cells of flat morphology was done based on nuclei area, roundness and intensity of Hoechst in the nucleus and in the cytoplasm. In every gated cell, the mean signal intensity value for each fluorochrome was calculated separately in nucleus and cytoplasm. The specific nuclear signal was estimated subtracting mean cytoplasmic value from nuclear; and average value was calculated using at least 1000 cells in each well.

| EC50 ([1]; HeLa cells expressing GFP-tagged TRIM24, 1 h incubation) [nM] | Displacement of TRIM24-GFP from chromatin ([1]; after extraction) | Time to displacement of TRIM24-GFP from chromatin ([1]; data not shown) [min] | SMILES | H3K23 acetylation (anti-H3K23Ac immunostaining) ([2]; 3 µM, HeLa control and TRIM24-PB cells) | Cellular histone H3K23Ac mark ([2]; HDAC inhibitor treatment, 2 µM, Western blot) |
| --- | --- | --- | --- | --- | --- |
| 2300 | full displacement | ≤ 1 | Cc1nc(S(=O)(=O)Nc2cc3c(cc2Oc2cccc(OCC(C)C)c2)n(C)c(=O)n3C)cn1C [IACS-6558, N-{1,3-dimethyl-6-[3-(2-methylpropoxy)phenoxy]-2-oxo-2,3-dihydro-1H-1,3-benzodiazol-5-yl}-1,2-dimethyl-1H-imidazole-4-sulfonamide] | – | – |
| – | – | – | O=C(CCCCCCC(=O)Nc1ccccc1)NO [SAHA, Suberoylanilide Hydroxamic Acid] | maximal H3K23 acetylation | hyperacetylated |
